# Test results taken from paper PMC4503722, “Novel Phenotypic Outcomes Identified for a Public Collection of Approved Drugs from a Publicly Accessible Panel of Assays” (PLoS ONE, 2015).
# Read-outs that look alike come from different tables or passages of the source.
# Columns and labels:
# Assay in all cases: cells
# DLD-1 = assay type: cell-based; settings: Homo sapiens
# INS-1E cells = assay type: cell-based, rat
# HT-29 = assay type: cell-based
# RKO = assay type: cell-based
# HCT116 = assay type: cell-based; settings: Homo sapiens
# Colo320 = assay type: cell-based
# SNU-C1 = assay type: cell-based; settings: Homo sapiens
# HeLa cells = assay type: cell-based; settings: Homo sapiens, HeLa, HeLa, read-out: CellCycle G2/M
# NCI-H716 cells = assay type: cell-based, Human
# [1] = system: nuclear β-catenin in C2C12 cells; assay type: cell-based
# [2] = system: HCT116 cells treated with a GSK3β inhibitor; assay type: cell-based; settings: Homo sapiens
# SW480 = assay type: cell-based; settings: Homo sapiens
# [3] = system: endothelial tube formation in co-cultures of ECFCs and ADSCs treated with VEGF; assay type: cell-based, human
# [4] = DLD-1, basal, DLD-1, read-out: Basal_Viability ATP DLD-1
# [5] = Rattus norvegicus, INS-1E; read-out: Insulin Secretion
# [6] = Homo sapiens; basal; HT-29; read-out: Basal_Viability ATP HT-29
# [7] = Homo sapiens; basal; RKO; read-out: Basal_Viability ATP RKO
# [8] = HCT-116, basal, HCT116, read-out: Basal_Viability ATP HCT116
# [9] = Homo sapiens; basal; Colo 320; read-out: Basal_Viability ATP Colo 320
# [10] = SNU-C1, basal, SNU-C1, read-out: Basal_Viability ATP SNU-C1
# [11] = S2 Table, 20 = no response at highest concentration
# [12] = Homo sapiens, NCI-H716; read-out: GLP 1 Secretion
# [13] = Mus musculus, C2C12, S2 Table; module primary assay; 20 / 20.1 codes per legend; read-out: Wnt Pathway
# [14] = HCT-116, HCT116 pretreated with GSK3b inhibitor, read-out: GSK3b inh pretreated_Viability ATP HCT116
# [15] = SW480, basal, SW480, read-out: Basal_Viability ATP SW480
# [16] = Homo sapiens, RKO, read-out: Basal_Viability ATP RKO
# [17] = Homo sapiens, COLO 320, read-out: Basal_Viability ATP Colo 320
# [18] = SW480, read-out: Basal_Viability ATP SW480
Compound,IC50 (DLD-1; [4]) [nM],EC50 (INS-1E cells; [5]) [nM],IC50 (HT-29; [6]) [nM],IC50 (RKO; [7]) [nM],IC50 (HCT116; [8]) [nM],IC50 (Colo320; [9]) [nM],IC50 (SNU-C1; [10]) [nM],EC50 (HeLa cells; [11]) [nM],EC50 (NCI-H716 cells; [12]) [nM],"EC50 [1, 13] [nM]","IC50 [2, 14] [nM]",IC50 (SW480; [15]) [nM],IC50 (RKO; [16]) [nM],IC50 (Colo320; [17]) [nM],IC50 (SW480; [18]) [nM],other results
Nc1nc(Cl)nc2c1ncn2[C@@H]1O[C@H](CO)[C@@H](O)[C@@H]1F [clofarabine],164,> 10000,> 20000,1,1,> 20000,> 20000,> 10000,> 10000,> 10000,1,1200,,,,
CC[C@H]1CN2CCc3cc(OC)c(OC)cc3[C@@H]2C[C@@H]1C[C@H]1NCCc2cc(OC)c(OC)cc21 [emetine],,,,,,,,,,,,,,,,"IC50 (DLD-1; DLD-1, basal, read-out: Basal_Viability ATP DLD-1): 11.6 nM; EC50 (INS-1E cells; Rattus norvegicus; IC50 / EC50; INS-1E; read-out: Insulin Secretion): > 10000 nM; IC50 (HT-29; Homo sapiens, HT-29; read-out: Basal_Viability ATP HT-29): 16.3 nM; IC50 (RKO; Homo sapiens, RKO; read-out: Basal_Viability ATP RKO): 8.31 nM; IC50 (HCT116; HCT-116, basal, read-out: Basal_Viability ATP HCT116): 61.5 nM; IC50 (Colo320; Homo sapiens, COLO 320; read-out: Basal_Viability ATP Colo 320): 22.1 nM; IC50 (SNU-C1; SNU-C1, basal, read-out: Basal_Viability ATP SNU-C1): 2.28 nM; EC50 (HeLa cells; IC50 / EC50): > 10000 nM; EC50 (NCI-H716 cells; Homo sapiens; IC50 / EC50; NCI-H716; read-out: GLP 1 Secretion): > 10000 nM; EC50 ([1]; Mus musculus, C2C12, IC50 / EC50; C2C12 beta-catenin translocation; read-out: Wnt Pathway): > 10000 nM; IC50 ([2]; HCT-116, GSK3b inhibitor pretreated, read-out: GSK3b inh pretreated_Viability ATP HCT116): 1 nM; IC50 (SW480; SW480, basal, read-out: Basal_Viability ATP SW480): 1 nM"
CN(C)c1ccc(C(=C2C=CC(=[N+](C)C)C=C2)c2ccccc2)cc1 [malachite green],,,,,,,,,,,,,118,161,9.22,"IC50 (DLD-1; DLD-1, read-out: Basal_Viability ATP DLD-1): 21.8 nM; EC50 (INS-1E cells; Rattus norvegicus, INS-1E, read-out: Insulin Secretion): > 10000 nM; IC50 (HT-29; Homo sapiens, HT-29, read-out: Basal_Viability ATP HT-29): 9.82 nM; IC50 (HCT116; HCT-116, read-out: Basal_Viability ATP HCT116): 17.9 nM; IC50 (SNU-C1; SNU-C1, read-out: Basal_Viability ATP SNU-C1): 35.4 nM; IC50 ([3]; Homo sapiens, read-out: Anti-Angiogenesis): 60.5 nM; EC50 (NCI-H716 cells; Homo sapiens, NCI-H716, read-out: GLP 1 Secretion): > 10000 nM; EC50 ([1]; Mus musculus, C2C12, read-out: Wnt Pathway): 363 nM; IC50 ([2]; HCT-116, read-out: GSK3b inh pretreated_Viability ATP HCT116): 9.83 nM"
"CCC(C)(C)C(=O)O[C@H]1C[C@@H](C)C=C2C=C[C@H](C)[C@H](CC[C@@H]3C[C@@H](O)CC(=O)O3)[C@H]21 [simvastatin, reference compound]",,,,,,4940,,> 10000,3290,,4730,,,,5930,"IC50 (DLD-1; DLD-1, 72 h, Table 2, 72 h, Cell TiterGlo, non-adherent, 20 coded, read-out: DLD-1 viab. IC50): > 20000 nM; EC50 (INS-1E cells; Rattus norvegicus, INS-1E; read-out: Ins. sec. EC50): > 10000 nM; IC50 (HT-29; Homo sapiens, HT-29; Table 2; 72 h, Cell TiterGlo, non-adherent; 20 coded; read-out: HT-29 viab. IC50): > 20000 nM; IC50 (RKO; Homo sapiens, RKO; Table 2; 72 h, Cell TiterGlo, non-adherent; 20 coded; read-out: RKO viab. IC50): > 20000 nM; IC50 (HCT116; HCT-116, 72 h, read-out: HCT-116 viab. IC50, Table 2, basal, 72 h, Cell TiterGlo, non-adherent, 20 coded): > 20000 nM; IC50 (Colo320; Homo sapiens, COLO 320; Table 2; 72 h, Cell TiterGlo, non-adherent; 20 coded; read-out: Colo320 viab. IC50): 4900 nM; IC50 (SNU-C1; SNU-C1, 72 h, Table 2, 72 h, Cell TiterGlo, non-adherent, 20 coded, read-out: SNU-C1 viab. IC50): > 20000 nM; EC50 (NCI-H716 cells; Homo sapiens, NCI-H716; read-out: GLP1 sec. EC50): 3300 nM; EC50 ([1]; Mus musculus, C2C12, Table 2; C2C12; […]; 20 / 20.1 coded; read-out: Wnt pot. EC50): > 10000 nM; IC50 ([2]; HCT-116, read-out: HCT-116 (GSK3β) viab. IC50, Table 2, GSK3β inhibitor LY2090314 20 nM, 72 h, Cell TiterGlo, 20 coded): 4700 nM; IC50 (SW480; SW480, 72 h, Table 2, 72 h, Cell TiterGlo, non-adherent, 20 coded, read-out: SW480 viab. IC50): 5900 nM"
COP(=S)(OC)Oc1ccc(Sc2ccc(OP(=S)(OC)OC)cc2)cc1 [temephos],> 20000,> 10000,> 20000,,> 20000,> 20000,3030,,> 10000,> 10000,> 20000,11.8,12100,,,IC50 ([3]; Homo sapiens; read-out: Anti-Angiogenesis): > 10000 nM
CC[C@@]1(O)C(=O)OCc2c1cc1n(c2=O)Cc2cc3c(CN(C)C)c(O)ccc3nc2-1 [topotecan],177,> 10000,24.6,34.2,34.1,,301,> 10000,> 10000,,1.44,233,,9420,,"EC50 ([1]; Mus musculus, C2C12; read-out: Wnt Pathway): 17.9 nM"
